Experimental data published in PMC11920646 (Frontiers in Pharmacology, 2025).
Where “and” joins values, the source holds several entries; their conditions need not be identical. Equal entries are not always repeated.

Columns and labels:
human PR = target: T1, human PR (Homo sapiens, UniProt P06401); test: PR reporter gene (transactivation) assay, CHO-Gal4/PR; type: cell-based; details: up to 10 µM
T1 construct: host or cells: CHO (DSMZ ACC-110), CHO-Gal4/PR
T1 sequence (P06401 679-913 limits assumed): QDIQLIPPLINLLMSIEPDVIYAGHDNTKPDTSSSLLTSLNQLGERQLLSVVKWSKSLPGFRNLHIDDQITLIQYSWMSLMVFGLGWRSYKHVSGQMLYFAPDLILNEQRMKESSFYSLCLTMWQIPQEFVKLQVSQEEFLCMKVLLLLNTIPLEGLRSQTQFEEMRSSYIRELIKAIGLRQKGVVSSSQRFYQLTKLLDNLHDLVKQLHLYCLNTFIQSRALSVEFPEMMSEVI
Source text: To create the CHO-Gal4/GR, CHO-Gal4/PR, and CHO-Gal4/MR reporter cell lines, first CHO cells were stably transfected with a GAL4-UAS-luciferase reporter construct. Then, the LBD of the GR, PR, or MR (GR Gene ID: 2908, PR Gene ID: 5241, MR Gene ID: 4306, respectively) was cloned into pIRES2-EGFP-GAL4 containing the DBD of GAL4 from pFA-AT2, and then co-transfected into the luciferase-reporter construct-containing CHO cells. These reporter cell lines express the respective nuclear hormone receptor LBD-DBD fusion proteins that control luciferase expression of a GAL4-upstream activation sequence (UAS)-luciferase reporter construct, allowing for detection of ligand- or compound-induced transactivation at the GR, PR, or MR by measuring luciferase activity.
Cryo-preserved CHO-Gal4/GR, CHO-Gal4/PR, and CHO-Gal4/MR cells were plated in medium at 7,500 cells/well in 384-well assay plates (25 μL/well), and incubated for 24 h. […] Following a 4-h incubation, cells were lysed and luminescence measured using the EMCCD camera FLIPR®Tetra (Molecular Devices, Silicon Valley, CA, United States).
Transactivation (i.e., gene activation) was expressed as a percentage of the reference agonist activity (Supplementary Material), using Genedata Screener® v15.0.5 software (Basel, Switzerland).
Transactivation was calculated according to this equation: […]

[1] = tested on: tyrosine aminotransferase (TAT) activity in HepG2 cells; test: Induction of TAT enzyme activity in HepG2 cells; type: cell-based, human; details: for EC50: 24 h; for Efficacy, induction of TAT enzyme activity: relative to dexamethasone, GRM-01 maximum at 10 µM
Protocol: TAT is a key enzyme in gluconeogenesis under the control of glucocorticoids and their interaction with the GR ([Panin and Usynin, 2008]), where induction of TAT expression is mediated through GR transactivation.
HepG2 cells were seeded at 20,000 cells/well in an Eagles’ minimal essential medium (EMEM)-based cell culture medium (Supplementary Material) in 96-well plates and incubated for 24 h in standard conditions. […] Medium was removed, cells washed with 50 μL of phosphate buffered saline (PBS) solution and lysis buffer added (45 µL/well) for a 20-min incubation in agitation at 1,200 rpm at room temperature. Detection buffer (150 µL/well) was added for a 2-h incubation after which the reaction was stopped, followed by a 30-min incubation, all at 37°C. This reaction solution was transferred to an absorbance detection plate (5 µL/well) to measure TAT expression (Envision plate reader, PerkinElmer).
The HepG2 cell culture medium was comprised of 500 mL of Eagles’ minimal essential medium (EMEM) without L-glutamine, 5 mL of 100X penicillin/streptomycin, 5 mL of Ultraglutamine I Supplement 200 mM, 5 mL of non-essential amino acids (NEAA) 100X (all from Lonza), and 50 mL of FBS (Sigma).
% activation= compound -minmax- min ×100
where min = TAT expression in medium only, max = TAT expression after stimulation with dexamethasone

[2] = humans ref Ferry et al., 1988; cited from earlier work
[3] = tested on: TNF-α–induced IL-6 release from primary fibroblast-like synoviocytes; test: Inhibition of TNF-α–induced IL-6 release by primary FLS from rheumatoid arthritis patients; type: cell-based, human; details: for IL-6 concentration: replicate wells 1-3
Protocol: In this assay, conducted by BioIVT (Hertfordshire, United Kingdom), primary FLS were obtained from three donors with rheumatoid arthritis and seeded at passage 4 in FGM™-2 fibroblast growth medium (Lonza) in 96-well plates at a density of […], and incubated overnight in standard conditions. […] Negative controls were TNF-α alone and culture medium alone, and vehicle control was DMSO (0.1%). IL-6 was measured in collected supernatant using an enzyme-linked immunosorbent assay (ELISA, R&D Systems Minneapolis, MN, United States) according to the manufacturer’s instructions.
% inhibition= compound -maxmin- max ×100

C[C@]12C=CC(=O)C=C1CC[C@@H]1[C@@H]2[C@@H](O)C[C@@]2(C)[C@H]1CC[C@]2(O)C(=O)CO [Prednisolone]
PR transactivation (human PR): no detectable transactivation | EC50 [1]: 284 ± 113 nM | EC50 ([1]; Homo sapiens, HepG2, 24 h): 283 nM | Efficacy, induction of TAT enzyme activity [1]: 92.4 ± 5.3% | Efficacy, induction of TAT enzyme activity ([1]; listed as prednisolone): 92.4% and 92% | t½ [2]: ~2.5 h | IL-6 concentration ([3]; Donor 1, compound −5 log M): 260.7 pg/mL and 224.6 pg/mL and 206.6 pg/mL | IL-6 concentration ([3]; Donor 1, compound −6 log M): 269.7 pg/mL and 215.6 pg/mL and 206.6 pg/mL | IL-6 concentration ([3]; Donor 1, compound −7 log M): 292.3 pg/mL and 274.3 pg/mL and 238.1 pg/mL | IL-6 concentration ([3]; Donor 1, compound −8 log M): 616.3 pg/mL and 483.3 pg/mL and 446.8 pg/mL | IL-6 concentration ([3]; Donor 1, compound −9 log M): 988.4 pg/mL and 736.4 pg/mL and 685.5 pg/mL | IL-6 concentration ([3]; Donor 1, compound −10 log M): 880.6 pg/mL and 778.2 pg/mL and 796.8 pg/mL | IL-6 concentration ([3]; Donor 1, compound −11 log M): 964.9 pg/mL and 801.4 pg/mL and 731.8 pg/mL | IL-6 concentration ([3]; Donor 1, compound −12 log M): 946.2 pg/mL and 768.9 pg/mL and 708.6 pg/mL | IL-6 concentration ([3]; Donor 1, compound −13 log M): 1101.6 pg/mL and 838.7 pg/mL and 755.0 pg/mL | IL-6 concentration ([3]; Donor 1, compound −14 log M): 1106.3 pg/mL and 960.2 pg/mL and 880.6 pg/mL | IL-6 concentration ([3]; Donor 2, compound −5 log M): 516.5 pg/mL and 385.6 pg/mL and 394.9 pg/mL | IL-6 concentration ([3]; Donor 2, compound −6 log M): 521.2 pg/mL and 394.9 pg/mL and 381.0 pg/mL | IL-6 concentration ([3]; Donor 2, compound −7 log M): 554.0 pg/mL and 394.9 pg/mL and 404.3 pg/mL | IL-6 concentration ([3]; Donor 2, compound −8 log M): 848.1 pg/mL and 695.7 pg/mL and 681.5 pg/mL | IL-6 concentration ([3]; Donor 2, compound −9 log M): 1338.8 pg/mL and 1045.5 pg/mL and 1157.3 pg/mL | IL-6 concentration ([3]; Donor 2, compound −10 log M): 1309.2 pg/mL and 1108.6 pg/mL and 1215.9 pg/mL | IL-6 concentration ([3]; Donor 2, compound −11 log M): 1497.4 pg/mL and 1079.5 pg/mL and 2570.2 pg/mL | IL-6 concentration ([3]; Donor 2, compound −12 log M): 1427.8 pg/mL and 1215.9 pg/mL and 1123.2 pg/mL | IL-6 concentration ([3]; Donor 2, compound −13 log M): 2326.4 pg/mL and 1123.2 pg/mL and 1142.7 pg/mL | IL-6 concentration ([3]; Donor 2, compound −14 log M): 1552.3 pg/mL and 1393.1 pg/mL and 1255.1 pg/mL | IL-6 concentration ([3]; Donor 3, compound −5 log M): 172.0 pg/mL and 199.6 pg/mL and 166.5 pg/mL | IL-6 concentration ([3]; Donor 3, compound −6 log M): 170.2 pg/mL and 159.2 pg/mL and 179.4 pg/mL | IL-6 concentration ([3]; Donor 3, compound −7 log M): 221.8 pg/mL and 220.0 pg/mL and 214.4 pg/mL | IL-6 concentration ([3]; Donor 3, compound −8 log M): 621.9 pg/mL and 428.5 pg/mL and 386.6 pg/mL | IL-6 concentration ([3]; Donor 3, compound −9 log M): 645.5 pg/mL and 847.5 pg/mL and 637.6 pg/mL | IL-6 concentration ([3]; Donor 3, compound −10 log M): 1022.6 pg/mL and 1127.9 pg/mL and 983.0 pg/mL | IL-6 concentration ([3]; Donor 3, compound −11 log M): 774.8 pg/mL and 813.1 pg/mL and 796.9 pg/mL | IL-6 concentration ([3]; Donor 3, compound −12 log M): 904.7 pg/mL and 837.4 pg/mL and 859.7 pg/mL | IL-6 concentration ([3]; Donor 3, compound −13 log M): 956.1 pg/mL and 937.5 pg/mL and 1151.3 pg/mL | IL-6 concentration ([3]; Donor 3, compound −14 log M): 888.3 pg/mL and 831.3 pg/mL and 947.8 pg/mL | IC50 ([3]; Homo sapiens, primary FLS from three RA donors, 24 h): 5.6 ± 2.3 nM | Inhibition (efficacy) of TNF-α–induced IL-6 release ([3]; primary FLS from three RA donors, 24 h): 79.8 ± 7.6%
